Values quoted from earlier work as cited in patent publication US6262080A, “3-(thio-substitutedamido)-lactams useful as inhibitors of matrix metalloproteinase” (Avantis Pharmaceuticals Inc., priority 1999, dated 2001).

System: B16-BL6 murine melanoma
Conditions: intraperitoneal administration; lung colonies produced by intravenous injection of B16-BL6 murine melanoma in C57BL/6N mice

Compound: CNC(=O)[C@H](Cc1ccccc1)NC(=O)[C@H](CC(C)C)[C@H](CSc1cccs1)C(=O)NO [batimastat]
- growth and metastatic spread and number of lung colonies: significant inhibition
